Experimental data published in ChEMBL document CHEMBL4002643, “Tubulin-binding dibenz[c,e]oxepines: Part 2. Structural variation and biological evaluation as tumour vasculature disrupting agents” (Bioorg Med Chem, 2017).

What was measured:
[1] = system: COLO 205; assay: Cytotoxicity against human COLO205 cells assessed as growth inhibition after 48 hrs by SRB assay; type: functional; settings: COLO 205, 48 h
[2] = system: U-251; assay: Cytotoxicity against human U251 cells assessed as growth inhibition after 48 hrs by SRB assay; type: functional; settings: U-251, 48 h
[3] = system: SK-MEL-28; assay: Cytotoxicity against human SK-MEL-28 cells assessed as growth inhibition after 48 hrs by SRB assay; type: functional; settings: SK-MEL-28, 48 h
[4] = system: CCRF-CEM; assay: Cytotoxicity against human CCRF-CEM cells assessed as growth inhibition after 48 hrs by SRB assay; type: functional
[5] = system: BT-549; assay: Cytotoxicity against human BT549 cells assessed as growth inhibition after 48 hrs by SRB assay; type: functional; settings: BT-549, 48 h
[6] = system: RXF 393; assay: Cytotoxicity against human RXF393 cells assessed as growth inhibition after 48 hrs by SRB assay; type: functional; settings: RXF 393, 48 h
[7] = system: HCC 2998; assay: Cytotoxicity against human HCC2998 cells assessed as growth inhibition after 48 hrs by SRB assay; type: functional; settings: HCC 2998, 48 h
[8] = system: MOLT-4; assay: Cytotoxicity against human MOLT4 cells assessed as growth inhibition after 48 hrs by SRB assay; type: functional; settings: MOLT-4, 48 h
[9] = system: MCF7; assay: Cytotoxicity against human MCF7 cells assessed as growth inhibition after 48 hrs by SRB assay; type: functional; settings: MCF7, 48 h
[10] = system: RPMI-8226; assay: Cytotoxicity against human RPMI8226 cells assessed as growth inhibition after 48 hrs by SRB assay; type: functional; settings: RPMI-8226, 48 h
[11] = system: 786-0; assay: Cytotoxicity against human 786-0 cells assessed as growth inhibition after 48 hrs by SRB assay; type: functional; settings: 786-0, 48 h
[12] = system: NCI-H226; assay: Cytotoxicity against human NCI-H226 cells assessed as growth inhibition after 48 hrs by SRB assay; type: functional; settings: NCI-H226, 48 h
[13] = Inhibition of porcine tubulin assembly measured for 30 mins by UV/visible spectrophotometric method; design: species or system Sus scrofa
[14] = system: SW-620; assay: Cytotoxicity against human SW620 cells assessed as growth inhibition after 48 hrs by SRB assay; type: functional; settings: SW-620, 48 h
[15] = system: T47D; assay: Cytotoxicity against human T47D cells assessed as growth inhibition after 48 hrs by SRB assay; type: functional
[16] = system: NCI-H322M; assay: Cytotoxicity against human NCI-H322M cells assessed as growth inhibition after 48 hrs by SRB assay; type: functional
[17] = system: MDA-MB-231; assay: Cytotoxicity against human MDA-MB-231 cells assessed as growth inhibition after 48 hrs by SRB assay; type: functional; settings: MDA-MB-231, 48 h
[18] = system: SN12C; assay: Cytotoxicity against human SN12C cells assessed as growth inhibition after 48 hrs by SRB assay; type: functional
[19] = system: MDA-MB-435; assay: Cytotoxicity against human MDA-MB-435 cells assessed as growth inhibition after 48 hrs by SRB assay; type: functional; settings: MDA-MB-435, 48 h
[20] = system: KM12; assay: Cytotoxicity against human KM12 cells assessed as growth inhibition after 48 hrs by SRB assay; type: functional; settings: KM12, 48 h
[21] = system: LOX IMVI; assay: Cytotoxicity against human LOXIMVI cells assessed as growth inhibition after 48 hrs by SRB assay; type: functional
[22] = system: HCT-116; assay: Cytotoxicity against human HCT116 cells assessed as growth inhibition after 48 hrs by SRB assay; type: functional; settings: HCT-116, 48 h
[23] = system: M14; assay: Cytotoxicity against human M14 cells assessed as growth inhibition after 48 hrs by SRB assay; type: functional; settings: M14, 48 h
[24] = system: PC-3; assay: Cytotoxicity against human PC3 cells assessed as growth inhibition after 48 hrs by SRB assay; type: functional; settings: PC-3, 48 h
[25] = system: NCI/ADR-RES; assay: Cytotoxicity against human NCI-ADR-RES cells assessed as growth inhibition after 48 hrs by SRB assay; type: functional
[26] = system: SF-539; assay: Cytotoxicity against human SF539 cells assessed as growth inhibition after 48 hrs by SRB assay; type: functional; settings: SF-539, 48 h
[27] = system: CAKI-1; assay: Cytotoxicity against human Caki1 cells assessed as growth inhibition after 48 hrs by SRB assay; type: functional; settings: CAKI-1, 48 h
[28] = system: UACC-257; assay: Cytotoxicity against human UACC257 cells assessed as growth inhibition after 48 hrs by SRB assay; type: functional; settings: UACC-257, 48 h
[29] = system: Hs-578T; assay: Cytotoxicity against human Hs 578T cells assessed as growth inhibition after 48 hrs by SRB assay; type: functional
[30] = system: SK-OV-3; assay: Cytotoxicity against human SKOV3 cells assessed as growth inhibition after 48 hrs by SRB assay; type: functional; settings: SK-OV-3, 48 h
[31] = system: MDA-MB-468; assay: Cytotoxicity against human MDA-MB-468 cells assessed as growth inhibition after 48 hrs by SRB assay; type: functional; settings: MDA-MB-468, 48 h
[32] = system: A549; assay: Cytotoxicity against human A549 cells assessed as growth inhibition after 48 hrs by SRB assay; type: functional; settings: A549, 48 h
[33] = system: NCI-H23; assay: Cytotoxicity against human NCI-H23 cells assessed as growth inhibition after 48 hrs by SRB assay; type: functional; settings: NCI-H23, 48 h
[34] = system: UACC-62; assay: Cytotoxicity against human UACC62 cells assessed as growth inhibition after 48 hrs by SRB assay; type: functional; settings: UACC-62, 48 h
[35] = system: A498; assay: Cytotoxicity against human A498 cells assessed as growth inhibition after 48 hrs by SRB assay; type: functional; settings: A498, 48 h
[36] = system: HL-60(TB); assay: Cytotoxicity against human HL-60(TB) cells assessed as growth inhibition after 48 hrs by SRB assay; type: functional; settings: HL-60, 48 h
[37] = system: UO-31; assay: Cytotoxicity against human UO31 cells assessed as growth inhibition after 48 hrs by SRB assay; type: functional; settings: UO-31, 48 h
[38] = system: NCI-H460; assay: Cytotoxicity against human NCI-H460 cells assessed as growth inhibition after 48 hrs by SRB assay; type: functional; settings: NCI-H460, 48 h
[39] = system: SNB-75; assay: Cytotoxicity against human SNB75 cells assessed as growth inhibition after 48 hrs by SRB assay; type: functional; settings: SNB-75, 48 h
[40] = system: SNB-19; assay: Cytotoxicity against human SNB19 cells assessed as growth inhibition after 48 hrs by SRB assay; type: functional; settings: SNB-19, 48 h
[41] = system: SF-295; assay: Cytotoxicity against human SF295 cells assessed as growth inhibition after 48 hrs by SRB assay; type: functional; settings: SF-295, 48 h
[42] = system: SK-MEL-5; assay: Cytotoxicity against human SK-MEL-5 cells assessed as growth inhibition after 48 hrs by SRB assay; type: functional; settings: SK-MEL-5, 48 h
[43] = system: HOP-62; assay: Cytotoxicity against human HOP62 cells assessed as growth inhibition after 48 hrs by SRB assay; type: functional; settings: HOP-62, 48 h
[44] = system: OVCAR-4; assay: Cytotoxicity against human OVCAR4 cells assessed as growth inhibition after 48 hrs by SRB assay; type: functional; settings: OVCAR-4, 48 h
[45] = system: NCI-H522; assay: Cytotoxicity against human NCI-H522 cells assessed as growth inhibition after 48 hrs by SRB assay; type: functional; settings: NCI-H522, 48 h
[46] = system: SR; assay: Cytotoxicity against human SR cells assessed as growth inhibition after 48 hrs by SRB assay; type: functional

## COc1ccc2c(c1O)COCc1cc(OC)c(OC)c(OC)c1-2
[1]
  GI50: 500 nM
[2]
  GI50: 300 nM
[3]
  GI50: 1580 nM
[4]
  GI50: 40 nM
[5]
  GI50: 260 nM
[6]
  GI50: 40 nM
[7]
  GI50: 320 nM
[8]
  GI50: 60 nM
[9]
  GI50: 70 nM
[10]
  GI50: 320 nM
[11]
  GI50: 430 nM
[12]
  GI50: 3470 nM
[13]
  IC50: 2200 nM
[14]
  GI50: 50 nM
[15]
  GI50: 33900 nM
[16]
  GI50: 520 nM
[17]
  GI50: 270 nM
[18]
  GI50: 210 nM
[19]
  GI50: 30 nM
[20]
  GI50: 50 nM
[21]
  GI50: 80 nM
[22]
  GI50: 320 nM
[23]
  GI50: 50 nM
[24]
  GI50: 280 nM
[25]
  GI50: 50 nM
[26]
  GI50: 50 nM
[27]
  GI50: 830 nM
[28]
  GI50: > 100000 nM
[29]
  GI50: 40 nM
[30]
  GI50: 70 nM
[31]
  GI50: 220 nM
[32]
  GI50: 350 nM
[33]
  GI50: 760 nM
[34]
  GI50: 1000 nM
[35]
  GI50: 3020 nM
[36]
  GI50: 30 nM
[37]
  GI50: 14500 nM
[38]
  GI50: 310 nM
[39]
  GI50: 70 nM
[40]
  GI50: 140 nM
[41]
  GI50: 270 nM
[42]
  GI50: 40 nM
[43]
  GI50: 630 nM
[44]
  GI50: 710 nM
[45]
  GI50: 40 nM
[46]
  GI50: 40 nM
